Source: publication PMC8042770, “Odorant Receptors for Detecting Flowering Plant Cues Are Functionally Conserved across Moths and Butterflies” (Molecular Biology and Evolution, 2020)

Test system: HarmOR repertoire
Experiment: Responses of the 28 functional HarmORs across odorant doses (PCA of oocyte currents)
Type: cell-based, Helicoverpa armigera
Settings: odorant 10^−7 M
From the text: Vectors quantifying the responses of the 28 ORs to each odorant were projected onto a 3D landscape. This 3D representation captured 78.34% (10^−4 M), 65.11% (10^−5 M), 68.89% (10^−6 M), and 84.52% (10^−7 M) of the variation in the original 28D data set across different odorant concentrations. […] In addition, the capacity of the H. armigera odor space was highly dependent on odorant concentration. As the concentrations of odorants decreased, their positions in the odor space converged, with the ability to discriminate different odorants diminishing.
Functional characterization of individual ORs was performed by heterologous expression in Xenopus oocytes combined with a two-electrode voltage-clamp system ([Wang et al. 2010]). Briefly, the full-length gene of each OR and Orco were subcloned into the eukaryotic expression vector pT7TS. cRNAs were generated from linearized expression vectors using the mMESSAGE mMACHINE T7 kit (Ambion, Austin, TX). Then, the cRNA mixture of ORx and Orco (27.6 ng each) was injected (Nanoliter 2010, WPI Inc., Sarasota, FL) into oocytes (stage V–VII). The respective Orcos of different species were used for functional studies of OR42 orthologs except for the four butterfly species (V. tameamea, P. xuthus, D. plexippus, and P. rapae), in which we used the Orco from P. xuthus. After incubation in nutrient solution at 18 °C for 3–5 days, the response profile of each oocyte to multiple plant odorants was recorded via a two-electrode voltage clamp (OC-725C oocyte clamp, Warner Instruments, Hamden, CT) at a holding potential of −80 mV. Data were acquired by using a Digidata 1440 A and were analyzed by pCLAMP 10.2 software (Axon Instruments Inc., Union City, CA).
Stock solutions of each odorant were prepared at 1 M using DMSO as a solvent, and each odorant was diluted in 1× Ringer’s solution to the indicated concentrations for electrophysiological recording. For functional screening of each HarmOR, a panel of 67 odorants belonging to three types of chemical classes: terpenes, aromatics, and aliphatics (short-chain fatty acid) were used (supplementary table S1, Supplementary Material online). For functional studies of OR42 orthologs from different species, six odorants including PAA, benzaldehyde, (E)-2-hexen-1-al, cinnamaldehyde, 2-phenylethanol, and heptanal were used.
Graphs and data statistics of OR response spectra, dose responses, EAG, and behavioral experiments were generated by Prism 7 (GraphPad Software, La Jolla, CA). A heat map was generated in Excel 2010 (Microsoft Corporation, WA). […] For tuning breadth analysis, the kurtosis values (K) were calculated by SPSS 22 (SPSS Inc., Chicago, IL) and were used to define the tuning spectra width, where smaller K values represent broader tuning spectra (fig. 1B). […]

For `O=CCc1ccccc1` [Phenylacetaldehyde], the “response of the HarmOR repertoire” value was “still responded”.
